The values that follow are results of earlier work, collected in patent US5618928A, “Triazenyl-substituted phenyl pyrimidines and their use in therapy” (British Technology Group Limited, priority 1992, dated 1997).

For data set [1] the following is noted: in combination with sulphamethoxazole, AIDS patients; cited from earlier work.
Data set [2] has as its system dihydrofolate reductase (DHFR). The note with it: in words, background; cited from earlier work.

SMILES strings stand for the structures.

On to `COc1cc(Cc2cnc(N)nc2N)cc(OC)c1OC` [trimethoprim], for which the adverse reactions entry in data set [1] was “high percentage of adverse reactions in AIDS patients”. On to `COc1cc(NCc2ccc3nc(N)nc(N)c3c2C)cc(OC)c1OC` [trimetrexate], for which, in data set [2], the potency entry is reported as “high potency” and the selectivity result is recorded as “poor selectivity”.
